This passage reports T/C results from PubChem BioAssay AID248 (DTP/NCI, 2004).

The structures appear in SMILES notation. Inconclusive results and toxic doses are left out. Square brackets hold non-standard residues; d marks the D form. Peptide text beside a SMILES is read from it. * marks the point of attachment. ξ: configuration not given here. Boc = CC(C)(C)OC(=O)*; ξP = O=C(O)C1CCCN1

The assay has as its system L1210 leukemia ip in BDF1 mice, survival T/C. Kind of assay: NCI In Vivo Anticancer Drug Screen. Data for tumor model L1210 Leukemia (intraperitoneal) in B6D2F1 (BDF1) mice. Conditions: endpoint: mean survival time, higher = longer survival. The procedure, abridged: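 Read-out is survival time, reported as the treated-group measurement over the vehicle-control measurement.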

Setting [1] is: dose: 100.0 mg/kg/injection, schedule: Q01DX009 (ip), vehicle: saline.
Setting [2] is: dose: 200.0 mg/kg/injection, schedule: Q01DX009 (ip), vehicle: saline.
[3] abbreviates: dose: 50.0 mg/kg/injection, schedule: Q01DX009 (ip), vehicle: saline.
Setting [4] is: dose: 100.0 mg/kg/injection, schedule: Q01DX001 (ip), vehicle: Klucel (hydroxypropylcellulose) (HPC).
[5] abbreviates: dose: 100.0 mg/kg/injection, schedule: Q04DX003 (ip), vehicle: Klucel (hydroxypropylcellulose) (HPC).
Where [6] appears, read: dose: 200.0 mg/kg/injection, schedule: Q01DX001 (ip), vehicle: Klucel (hydroxypropylcellulose) (HPC).
[7] abbreviates: dose: 200.0 mg/kg/injection, schedule: Q04DX003 (ip), vehicle: Klucel (hydroxypropylcellulose) (HPC).
The mark [8] stands for this setting: dose: 400.0 mg/kg/injection, schedule: Q01DX001 (ip), vehicle: Klucel (hydroxypropylcellulose) (HPC).
Setting [9] is: dose: 400.0 mg/kg/injection, schedule: Q04DX003 (ip), vehicle: Klucel (hydroxypropylcellulose) (HPC).
Where [10] appears, read: dose: 100.0 mg/kg/injection, schedule: Q01DX009 (ip), vehicle: Klucel (hydroxypropylcellulose) (HPC).
Where [11] appears, read: dose: 200.0 mg/kg/injection, schedule: Q01DX009 (ip), vehicle: Klucel (hydroxypropylcellulose) (HPC).
The mark [12] stands for this setting: dose: 400.0 mg/kg/injection, schedule: Q01DX009 (ip), vehicle: Klucel (hydroxypropylcellulose) (HPC).

As to `C1=CC2CCC(C1)C21OCCO1` (stereo not drawn), the T/C is, setting by setting: under setting [1], 92 % of control; (dose: 100.0 mg/kg/injection, schedule: Q04DX003 (ip), vehicle: alcohol) 108 % of control; under setting [2], 96 % of control; (dose: 200.0 mg/kg/injection, schedule: Q04DX003 (ip), vehicle: alcohol) 108 % of control; (dose: 400.0 mg/kg/injection, schedule: Q01DX009 (ip), vehicle: saline) 94 % of control; (dose: 400.0 mg/kg/injection, schedule: Q04DX003 (ip), vehicle: alcohol) 97 % of control.
On to `CN(C)[C@@H]1C(=O)C(C(=O)NCc2nc3[nH]cnc(=S)c3[nH]2)=C(O)[C@@]2(O)C(=O)C3=C(O)c4c(O)cccc4[C@@](C)(O)[C@H]3C[C@@H]12`, for which the T/C (dose: 16.0 mg/kg/injection, schedule: Q01DX Z (ip), vehicle: carboxymethylcellulose (CMC)) was 107 % of control; the T/C (dose: 32.0 mg/kg/injection, schedule: Q01DX Z (ip), vehicle: carboxymethylcellulose (CMC)) is 119 % of control; the T/C (dose: 56.0 mg/kg/injection, schedule: Q01DX Z (ip), vehicle: carboxymethylcellulose (CMC)) is 103 % of control; the T/C (dose: 64.0 mg/kg/injection, schedule: Q01DX Z (ip), vehicle: carboxymethylcellulose (CMC)) is 112 % of control; the T/C (dose: 128.0 mg/kg/injection, schedule: Q01DX Z (ip), vehicle: carboxymethylcellulose (CMC)) is 150 % of control; the T/C (dose: 192.0 mg/kg/injection, schedule: Q01DX Z (ip), vehicle: carboxymethylcellulose (CMC)) is 179 % of control.
Take `O=[N+]([O-])c1ccc(S(=O)(=O)SC(F)(F)F)cc1`: the T/C is 106 % of control (dose: 75.0 mg/kg/injection, schedule: Q01DX001 (ip), vehicle: saline) and 102 % of control (dose: 150.0 mg/kg/injection, schedule: Q01DX001 (ip), vehicle: saline).
For the compound `c1ccc2c(c1)cc1ccc3cc4ccccc4c4ccc2c1c34`, the T/C is, setting by setting: (dose: 50.0 mg/kg/injection, schedule: Q01DX009 (ip), vehicle: acetone) 110 % of control; (dose: 100.0 mg/kg/injection, schedule: Q01DX001 (ip), vehicle: carboxymethylcellulose (CMC)) 100 % of control; (dose: 100.0 mg/kg/injection, schedule: Q01DX009 (ip), vehicle: acetone) 105 % of control; (dose: 200.0 mg/kg/injection, schedule: Q01DX001 (ip), vehicle: carboxymethylcellulose (CMC)) 100 % of control; (dose: 200.0 mg/kg/injection, schedule: Q01DX009 (ip), vehicle: acetone) 107 % of control; (dose: 400.0 mg/kg/injection, schedule: Q01DX001 (ip), vehicle: carboxymethylcellulose (CMC)) 100 % of control.
Consider `CCN(CC)CCC(CNC(=O)CN(CC)CC)(c1cccc2ccccc12)C(C)C` (stereo not drawn), for which the T/C (dose: 12.5 mg/kg/injection, schedule: Q01DX009 (ip), vehicle: saline) was 98 % of control; the T/C (dose: 12.5 mg/kg/injection, schedule: Q04DX003 (ip), vehicle: saline) is 94 % of control; the T/C (dose: 25.0 mg/kg/injection, schedule: Q01DX009 (ip), vehicle: saline) is 93 % of control; the T/C (dose: 25.0 mg/kg/injection, schedule: Q04DX003 (ip), vehicle: saline) is 110 % of control; the T/C under setting [3] is 90 % of control; the T/C (dose: 50.0 mg/kg/injection, schedule: Q04DX003 (ip), vehicle: saline) is 104 % of control.
Regarding `CC(=O)C(C(=O)c1ccccc1)C(c1ccccc1)c1ccccc1` (stereo not drawn), the T/C under setting [4] is 93 % of control; the T/C under setting [5] is 92 % of control; the T/C under setting [6] is 90 % of control; the T/C under setting [7] was 96 % of control; the T/C under setting [8] was 92 % of control; the T/C under setting [9] is 94 % of control.
Take `CCOC(=O)C[P+](c1cccc(OC)c1)(c1cccc(OC)c1)c1cccc(OC)c1`: the T/C was 90 % of control (dose: 15.0 mg/kg/injection, schedule: Q01DX001 (ip), vehicle: carboxymethylcellulose (CMC)) and 91 % of control (dose: 30.0 mg/kg/injection, schedule: Q01DX001 (ip), vehicle: carboxymethylcellulose (CMC)).
With `CCOC1=CC(=O)CCC1`, the T/C is, setting by setting: under setting [3], 98 % of control; under setting [1], 94 % of control; (dose: 100.0 mg/kg/injection, schedule: Q04DX003 (ip), vehicle: saline) 98 % of control; under setting [2], 100 % of control; (dose: 200.0 mg/kg/injection, schedule: Q04DX003 (ip), vehicle: saline) 110 % of control; (dose: 400.0 mg/kg/injection, schedule: Q04DX003 (ip), vehicle: saline) 101 % of control.
Consider `CCCCC#CC(=O)OCCC`, for which the T/C is, setting by setting: (dose: 100.0 mg/kg/injection, schedule: Q04DX003 (ip), vehicle: saline with Tween-80) 94 % of control; (dose: 200.0 mg/kg/injection, schedule: Q04DX003 (ip), vehicle: saline with Tween-80) 99 % of control.
On to `COC(=O)CNC(=O)C1CCCN1C(=O)OC(C)(C)C` (stereo not drawn) (Boc-[ξP]-Gly-OMe), for which the T/C is, setting by setting: (dose: 100.0 mg/kg/injection, schedule: Q01DX009 (ip), vehicle: saline with Tween-80) 100 % of control; (dose: 200.0 mg/kg/injection, schedule: Q01DX009 (ip), vehicle: saline with Tween-80) 100 % of control; (dose: 400.0 mg/kg/injection, schedule: Q01DX009 (ip), vehicle: saline with Tween-80) 90 % of control.
On to `CCOC(=O)NCCBr`, for which the T/C by setting is: under setting [10], 102 % of control; under setting [5], 101 % of control; under setting [11], 102 % of control; under setting [7], 106 % of control; under setting [12], 100 % of control; under setting [9], 94 % of control.
In the case of `CC1(C)CC(C)(c2ccccc2)c2ccccc21` (stereo not drawn), the T/C is, setting by setting: (dose: 50.0 mg/kg/injection, schedule: Q01DX009 (ip), vehicle: Klucel (hydroxypropylcellulose) (HPC)) 101 % of control; (dose: 75.0 mg/kg/injection, schedule: Q04DX003 (ip), vehicle: Klucel (hydroxypropylcellulose) (HPC)) 104 % of control; under setting [10], 95 % of control; (dose: 150.0 mg/kg/injection, schedule: Q04DX003 (ip), vehicle: Klucel (hydroxypropylcellulose) (HPC)) 102 % of control; under setting [11], 95 % of control; (dose: 300.0 mg/kg/injection, schedule: Q04DX003 (ip), vehicle: Klucel (hydroxypropylcellulose) (HPC)) 102 % of control.
With `CC(=O)OC1=COc2c(Cl)ccc3cccc1c23`, the T/C runs as follows: under setting [4], 103 % of control; under setting [6], 109 % of control; under setting [8], 97 % of control.
For `CC1CCN(c2ccc([N+](=O)[O-])cc2[N+](=O)[O-])CC1`, the T/C is 99 % of control under setting [10]; 104 % of control under setting [5]; 99 % of control under setting [11]; 98 % of control under setting [7]; 103 % of control under setting [9].
Consider `O=C(NC(=O)C(C(=O)c1ccccc1)c1ccccc1)c1ccccc1` (stereo not drawn), for which the T/C was 86 % of control (dose: 100.0 mg/kg/injection, schedule: Q01DX001 (ip), vehicle: other); 89 % of control (dose: 200.0 mg/kg/injection, schedule: Q01DX001 (ip), vehicle: other); 91 % of control (dose: 400.0 mg/kg/injection, schedule: Q01DX001 (ip), vehicle: other).
In the case of `CCN(CC)CCCC(C)Nc1ncnc(N)c1N` (stereo not drawn), the T/C (dose: 12.5 mg/kg/injection, schedule: Q04DX003 (ip), vehicle: Klucel (hydroxypropylcellulose) (HPC)) was 93 % of control; the T/C (dose: 25.0 mg/kg/injection, schedule: Q04DX003 (ip), vehicle: Klucel (hydroxypropylcellulose) (HPC)) was 91 % of control; the T/C (dose: 50.0 mg/kg/injection, schedule: Q04DX003 (ip), vehicle: Klucel (hydroxypropylcellulose) (HPC)) was 102 % of control.
On to `CS(=O)(=O)OCC1CCCCC1COS(C)(=O)=O` (stereo not drawn), for which the T/C by setting is: under setting [10], 107 % of control; under setting [11], 104 % of control; under setting [12], 93 % of control.
With `COc1cc(C=Nc2ccc(C(=O)O)c(O)c2)ccc1N(CCCl)CCCl`, the T/C (dose: 11.0 mg/kg/injection, schedule: Q01DX001 (ip), vehicle: carboxymethylcellulose (CMC)) is 118 % of control.
Take `Cc1ccc(Cl)c(NC(=O)Nc2cccc(C(F)(F)F)c2)c1`: the T/C was 87 % of control under setting [10], 87 % of control under setting [11] and 90 % of control under setting [12].
